Test results taken from ChEMBL document CHEMBL1201862, “PubChem BioAssay data set” (2004).
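Five concentrations, 48 hours, 96-well plates. Here, GI50 denotes the concentration required for 50% inhibition of growth.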 Active and inactive are the calls of the source. Rule as the data show it: active = GI50 up to about 1.1 µM and inactive = higher.

Experiments:
Assay in all cases: inhibition of tumour cell growth, NCI panel, 48 h
[1] = system: 786-0
[2] = system: A498
[3] = system: A549
[4] = system: HOP-92
[5] = system: K562
[6] = system: M14
[7] = system: MOLT-4
[8] = system: Malme-3M
[9] = system: NCI-H460
[10] = system: OVCAR-4
[11] = system: OVCAR-8
[12] = system: SF-268
[13] = system: SK-MEL-28
[14] = system: SR
[15] = system: SW-620
[16] = system: TK-10
[17] = system: U-251
[18] = system: UACC-62
[19] = system: T47D

Measured: GI50

COc1cc(OC)c(-c2ccc(OCc3ccccc3)c3c(OC)cc(C)cc23)c2c1C(C)=N[C@H](C)C2
inactive: [1] 2.1 µM | [2] 2.16 µM | [3] 2.3 µM | [4] 1.64 µM | [5] 1.55 µM | [6] 2.03 µM | [7] 2.29 µM | [8] 1.8 µM | [9] 2.1 µM | [10] 2.14 µM | [11] 1.96 µM | [12] 1.78 µM | [13] 2.36 µM | [14] 1.16 µM | [15] 2.45 µM | [16] 1.8 µM | [17] 2.08 µM | [18] 2.1 µM

Cc1nc2sccn2c1C(=O)NNC(N)=S
inactive: [1] > 100 µM | [3] > 100 µM | [4] 77.6 µM | [5] > 100 µM | [7] > 100 µM | [8] > 100 µM | [9] > 100 µM | [11] > 100 µM | [12] > 100 µM | [13] > 100 µM | [14] > 100 µM | [15] > 100 µM | [16] > 100 µM | [17] > 100 µM | [18] > 100 µM

O=[N+]([O-])c1cccc2nc3ccccc3c(NCCCCNc3c4ccccc4nc4cccc([N+](=O)[O-])c34)c12
active: [1] 0.0164 µM | [3] 0.0347 µM | [4] 0.0233 µM | [5] < 0.0216 µM | [6] 0.0389 µM | [7] < 0.0104 µM | [8] 0.0766 µM | [9] 0.0143 µM | [10] 0.0948 µM | [11] < 0.01 µM | [12] 0.0203 µM | [13] 0.164 µM | [15] < 0.0122 µM | [19] 0.0491 µM | [16] 0.0213 µM | [17] 0.0261 µM | [18] 0.134 µM

N#CC12COC3(CCCCC3C1(C#N)C#N)OC2=N (stereo not drawn)
inactive: [1] 19.2 µM | [2] 18.2 µM | [3] 24.7 µM | [4] 5.06 µM | [5] 10.6 µM | [6] 10.6 µM | [7] 10.9 µM | [8] 16.3 µM | [9] 16 µM | [11] > 10 µM | [12] 12.7 µM | [13] 14.6 µM | [15] 10.3 µM | [19] 11 µM | [16] 16.2 µM | [17] 8.87 µM | [18] 14.7 µM

CN(CC(=O)O)c1ncc2c(n1)C=CCC2
inactive: [1] > 100 µM | [2] > 100 µM | [3] > 100 µM | [4] > 100 µM | [5] > 100 µM | [6] > 100 µM | [7] > 100 µM | [8] > 100 µM | [9] > 100 µM | [10] > 100 µM | [11] > 100 µM | [12] > 100 µM | [13] > 100 µM | [14] > 100 µM | [15] > 100 µM | [16] > 100 µM | [17] > 100 µM | [18] > 100 µM

COc1ccc(NC(=O)c2cc(OC)cc(OC)c2)cc1
inactive: [1] > 85.7 µM | [2] 35.4 µM | [3] 12.1 µM | [4] > 100 µM | [5] 4.74 µM | [6] 47.3 µM | [7] 14.8 µM | [8] 36.6 µM | [9] 9.89 µM | [10] > 100 µM | [11] 80.5 µM | [12] 36.7 µM | [13] 45.7 µM | [14] 11.6 µM | [15] 7.01 µM | [16] 43.7 µM | [17] 17.5 µM | [18] 11.3 µM
